Laboratory results as given in ChEMBL document CHEMBL4507310, “Data for DCP probe A-1211212” (2021).

Experiments:
[1] = biological target: Beta-2 adrenergic receptor (Homo sapiens) (UniProt P07550); assay: Beta2 (h) Eurofins-Cerep binding assay; design: ligand concentration 0.3 nM; settings: filed as antagonist, Compound concentration 10.0 uM
[2] = biological target: Histamine H1 receptor (Homo sapiens) (UniProt P35367); assay: H1 (h) Eurofins-Cerep binding assay; design: ligand concentration 1 nM; settings: filed as antagonist, Compound concentration 10.0 uM
[3] = biological target: 5-hydroxytryptamine receptor 4 (Homo sapiens) (UniProt Q13639); assay: 5-HT4 e (h) Eurofins-Cerep binding assay; design: ligand concentration 0.3 nM; settings: filed as antagonist, Compound concentration 10.0 uM
[4] = biological target: NUAK family SNF1-like kinase 1 (Homo sapiens) (UniProt O60285); settings: Compound concentration 1000.0 nM
[5] = biological target: Aurora kinase A (Homo sapiens) (UniProt O14965); settings: Compound concentration 1000.0 nM
[6] = biological target: Bone morphogenetic protein receptor type-2 (Homo sapiens) (UniProt Q13873); settings: Compound concentration 1000.0 nM
[7] = biological target: Peripheral plasma membrane protein CASK (Homo sapiens) (UniProt O14936); settings: Compound concentration 1000.0 nM
[8] = biological target: Cyclin-dependent kinase 11B (Homo sapiens) (UniProt P21127); settings: Compound concentration 1000.0 nM
[9] = biological target: Cyclin-dependent kinase 4 (Homo sapiens) (UniProt P11802); settings: Compound concentration 1000.0 nM
[10] = biological target: Cyclin-dependent kinase 7 (Homo sapiens) (UniProt P50613); settings: Compound concentration 1000.0 nM
[11] = biological target: Casein kinase I isoform alpha (Homo sapiens) (UniProt P48729); settings: Compound concentration 1000.0 nM
[12] = biological target: Casein kinase I isoform gamma-3 (Homo sapiens) (UniProt Q9Y6M4); settings: Compound concentration 1000.0 nM
[13] = biological target: Eukaryotic translation initiation factor 2-alpha kinase 1 (Homo sapiens) (UniProt Q9BQI3); settings: Compound concentration 1000.0 nM
[14] = biological target: Ephrin type-A receptor 3 (Homo sapiens) (UniProt P29320); settings: Compound concentration 1000.0 nM
[15] = biological target: Ephrin type-B receptor 2 (Homo sapiens) (UniProt P29323); settings: Compound concentration 1000.0 nM
[16] = biological target: Serine/threonine-protein kinase/endoribonuclease IRE1 (Homo sapiens) (UniProt O75460); settings: Compound concentration 1000.0 nM
[17] = biological target: Tyrosine-protein kinase Fes/Fps (Homo sapiens) (UniProt P07332); settings: Compound concentration 1000.0 nM
[18] = biological target: G protein-coupled receptor kinase 3 (Homo sapiens) (UniProt P35626); settings: Compound concentration 1000.0 nM
[19] = biological target: Serine/threonine-protein kinase haspin (Homo sapiens) (UniProt Q8TF76); settings: Compound concentration 1000.0 nM
[20] = biological target: Leukocyte tyrosine kinase receptor (Homo sapiens) (UniProt P29376); settings: Compound concentration 1000.0 nM
[21] = biological target: Mitogen-activated protein kinase kinase kinase kinase 2 (Homo sapiens) (UniProt Q12851); settings: Compound concentration 1000.0 nM
[22] = biological target: Mitogen-activated protein kinase kinase kinase kinase 5 (Homo sapiens) (UniProt Q9Y4K4); settings: Compound concentration 1000.0 nM
[23] = biological target: Maternal embryonic leucine zipper kinase (Homo sapiens) (UniProt Q14680); settings: Compound concentration 1000.0 nM
[24] = system: Hepatocyte growth factor receptor (Homo sapiens), P08581 [M1250T]; settings: Compound concentration 1000.0 nM
[25] = biological target: Misshapen-like kinase 1 (Homo sapiens) (UniProt Q8N4C8); settings: Compound concentration 1000.0 nM
[26] = biological target: Serine/threonine-protein kinase MRCK beta (Homo sapiens) (UniProt Q9Y5S2); settings: Compound concentration 1000.0 nM
[27] = biological target: Serine/threonine-protein kinase 3 (Homo sapiens) (UniProt Q13188); settings: Compound concentration 1000.0 nM
[28] = biological target: Myosin light chain kinase 2, skeletal/cardiac muscle (Homo sapiens) (UniProt Q9H1R3); settings: Compound concentration 1000.0 nM
[29] = biological target: Myosin-IIIb (Homo sapiens) (UniProt Q8WXR4); settings: Compound concentration 1000.0 nM
[30] = biological target: Serine/threonine-protein kinase 38-like (Homo sapiens) (UniProt Q9Y2H1); settings: Compound concentration 1000.0 nM
[31] = biological target: Serine/threonine-protein kinase Nek10 (Homo sapiens) (UniProt Q6ZWH5); settings: Compound concentration 1000.0 nM
[32] = biological target: Serine/threonine-protein kinase Nek4 (Homo sapiens) (UniProt P51957); settings: Compound concentration 1000.0 nM
[33] = biological target: Mitogen-activated protein kinase 12 (Homo sapiens) (UniProt P53778); settings: Compound concentration 1000.0 nM
[34] = system: Phosphatidylinositol 4,5-bisphosphate 3-kinase catalytic subunit alpha isoform (Homo sapiens), P42336 [C420R]; settings: Compound concentration 1000.0 nM
[35] = biological target: Serine/threonine-protein kinase pim-3 (Homo sapiens) (UniProt Q86V86); settings: Compound concentration 1000.0 nM
[36] = biological target: cGMP-dependent protein kinase 2 (Homo sapiens) (UniProt Q13237); settings: Compound concentration 1000.0 nM
[37] = biological target: Serine/threonine-protein kinase RIO3 (Homo sapiens) (UniProt O14730); settings: Compound concentration 1000.0 nM
[38] = biological target: Dual serine/threonine and tyrosine protein kinase (Homo sapiens) (UniProt Q6XUX3); settings: Compound concentration 1000.0 nM
[39] = biological target: Ribosomal protein S6 kinase alpha-1 (Homo sapiens) (UniProt Q15418); settings: Compound concentration 1000.0 nM
[40] = biological target: Ribosomal protein S6 kinase alpha-6 (Homo sapiens) (UniProt Q9UK32); settings: Compound concentration 1000.0 nM
[41] = biological target: Serine/threonine-protein kinase tousled-like 1 (Homo sapiens) (UniProt Q9UKI8); settings: Compound concentration 1000.0 nM
[42] = biological target: Testis-specific serine/threonine-protein kinase 3 (Homo sapiens) (UniProt Q96PN8); settings: Compound concentration 1000.0 nM
[43] = biological target: Phosphatidylinositol 3-kinase catalytic subunit type 3 (Homo sapiens) (UniProt Q8NEB9); settings: Compound concentration 1000.0 nM
[44] = biological target: 5-hydroxytryptamine receptor 2A (Homo sapiens) (UniProt P28223); settings: Compound concentration 10.0 uM

Bone morphogenetic protein receptor type-2 (Homo sapiens), sequence (Q13873 whole entry): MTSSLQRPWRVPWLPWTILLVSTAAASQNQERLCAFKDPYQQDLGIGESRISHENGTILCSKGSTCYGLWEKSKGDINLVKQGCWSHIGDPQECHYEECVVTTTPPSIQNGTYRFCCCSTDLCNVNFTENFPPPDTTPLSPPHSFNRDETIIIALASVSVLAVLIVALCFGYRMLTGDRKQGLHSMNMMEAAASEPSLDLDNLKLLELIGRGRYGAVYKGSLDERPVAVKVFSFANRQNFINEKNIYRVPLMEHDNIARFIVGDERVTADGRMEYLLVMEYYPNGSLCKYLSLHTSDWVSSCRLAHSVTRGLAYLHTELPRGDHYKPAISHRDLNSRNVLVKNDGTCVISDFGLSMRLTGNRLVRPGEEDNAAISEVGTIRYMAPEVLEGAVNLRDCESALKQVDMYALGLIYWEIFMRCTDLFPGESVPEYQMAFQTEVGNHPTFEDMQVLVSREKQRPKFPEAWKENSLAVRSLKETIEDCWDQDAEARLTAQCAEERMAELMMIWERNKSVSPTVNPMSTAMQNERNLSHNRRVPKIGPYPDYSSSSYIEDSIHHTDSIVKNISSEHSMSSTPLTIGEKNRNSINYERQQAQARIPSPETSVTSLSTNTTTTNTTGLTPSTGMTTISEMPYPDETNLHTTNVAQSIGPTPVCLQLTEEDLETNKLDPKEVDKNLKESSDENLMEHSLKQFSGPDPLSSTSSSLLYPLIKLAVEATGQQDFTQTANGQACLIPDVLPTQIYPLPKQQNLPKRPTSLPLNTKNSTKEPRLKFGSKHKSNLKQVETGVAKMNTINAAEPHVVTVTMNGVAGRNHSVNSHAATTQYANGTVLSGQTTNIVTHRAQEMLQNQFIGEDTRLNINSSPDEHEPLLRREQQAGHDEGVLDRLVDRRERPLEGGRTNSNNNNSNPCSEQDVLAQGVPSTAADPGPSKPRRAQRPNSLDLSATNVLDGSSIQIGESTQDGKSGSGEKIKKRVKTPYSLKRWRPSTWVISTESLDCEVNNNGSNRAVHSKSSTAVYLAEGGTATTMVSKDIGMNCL
Cyclin-dependent kinase 4 (Homo sapiens), sequence (P11802 whole entry): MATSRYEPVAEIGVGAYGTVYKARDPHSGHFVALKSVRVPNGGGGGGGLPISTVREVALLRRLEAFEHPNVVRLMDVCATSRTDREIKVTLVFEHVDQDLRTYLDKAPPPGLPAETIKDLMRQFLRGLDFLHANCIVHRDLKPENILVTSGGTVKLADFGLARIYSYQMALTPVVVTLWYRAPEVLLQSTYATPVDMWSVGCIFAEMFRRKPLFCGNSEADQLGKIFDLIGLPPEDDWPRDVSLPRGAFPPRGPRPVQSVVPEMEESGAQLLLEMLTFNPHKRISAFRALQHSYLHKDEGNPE
Casein kinase I isoform gamma-3 (Homo sapiens), sequence (Q9Y6M4 whole entry, looked up, canonical isoform): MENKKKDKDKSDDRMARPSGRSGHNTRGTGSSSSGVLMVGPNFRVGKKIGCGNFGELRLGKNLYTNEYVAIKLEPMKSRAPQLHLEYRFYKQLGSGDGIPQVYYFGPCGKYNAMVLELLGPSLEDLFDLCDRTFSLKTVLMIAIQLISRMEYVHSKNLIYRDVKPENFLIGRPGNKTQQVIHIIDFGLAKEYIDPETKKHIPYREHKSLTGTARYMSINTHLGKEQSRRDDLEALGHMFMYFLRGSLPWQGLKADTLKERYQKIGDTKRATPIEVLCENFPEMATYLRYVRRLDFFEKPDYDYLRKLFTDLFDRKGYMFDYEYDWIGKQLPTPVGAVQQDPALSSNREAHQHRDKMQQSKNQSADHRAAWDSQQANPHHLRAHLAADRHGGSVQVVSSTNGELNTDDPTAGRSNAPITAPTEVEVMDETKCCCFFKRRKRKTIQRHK
cGMP-dependent protein kinase 2 (Homo sapiens), sequence (Q13237 whole entry): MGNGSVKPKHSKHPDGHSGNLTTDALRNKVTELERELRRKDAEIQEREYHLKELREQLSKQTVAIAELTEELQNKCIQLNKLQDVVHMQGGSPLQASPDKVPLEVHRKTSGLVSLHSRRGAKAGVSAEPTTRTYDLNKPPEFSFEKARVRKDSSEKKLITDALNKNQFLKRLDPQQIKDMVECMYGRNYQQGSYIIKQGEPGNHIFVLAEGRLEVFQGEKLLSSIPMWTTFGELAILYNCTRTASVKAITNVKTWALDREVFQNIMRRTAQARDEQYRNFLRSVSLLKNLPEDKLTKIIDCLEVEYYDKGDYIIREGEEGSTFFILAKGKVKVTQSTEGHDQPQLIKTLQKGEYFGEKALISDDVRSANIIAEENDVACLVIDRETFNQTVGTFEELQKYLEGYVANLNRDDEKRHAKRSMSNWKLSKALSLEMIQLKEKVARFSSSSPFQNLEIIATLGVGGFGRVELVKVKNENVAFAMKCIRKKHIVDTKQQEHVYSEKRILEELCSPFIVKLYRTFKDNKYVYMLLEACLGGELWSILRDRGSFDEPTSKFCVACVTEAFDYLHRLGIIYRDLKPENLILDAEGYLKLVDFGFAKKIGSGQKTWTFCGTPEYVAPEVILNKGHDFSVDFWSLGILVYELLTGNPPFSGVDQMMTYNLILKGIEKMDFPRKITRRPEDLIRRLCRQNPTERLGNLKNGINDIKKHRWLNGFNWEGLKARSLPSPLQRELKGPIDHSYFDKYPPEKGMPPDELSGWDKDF
NUAK family SNF1-like kinase 1 (Homo sapiens), sequence (O60285 whole entry): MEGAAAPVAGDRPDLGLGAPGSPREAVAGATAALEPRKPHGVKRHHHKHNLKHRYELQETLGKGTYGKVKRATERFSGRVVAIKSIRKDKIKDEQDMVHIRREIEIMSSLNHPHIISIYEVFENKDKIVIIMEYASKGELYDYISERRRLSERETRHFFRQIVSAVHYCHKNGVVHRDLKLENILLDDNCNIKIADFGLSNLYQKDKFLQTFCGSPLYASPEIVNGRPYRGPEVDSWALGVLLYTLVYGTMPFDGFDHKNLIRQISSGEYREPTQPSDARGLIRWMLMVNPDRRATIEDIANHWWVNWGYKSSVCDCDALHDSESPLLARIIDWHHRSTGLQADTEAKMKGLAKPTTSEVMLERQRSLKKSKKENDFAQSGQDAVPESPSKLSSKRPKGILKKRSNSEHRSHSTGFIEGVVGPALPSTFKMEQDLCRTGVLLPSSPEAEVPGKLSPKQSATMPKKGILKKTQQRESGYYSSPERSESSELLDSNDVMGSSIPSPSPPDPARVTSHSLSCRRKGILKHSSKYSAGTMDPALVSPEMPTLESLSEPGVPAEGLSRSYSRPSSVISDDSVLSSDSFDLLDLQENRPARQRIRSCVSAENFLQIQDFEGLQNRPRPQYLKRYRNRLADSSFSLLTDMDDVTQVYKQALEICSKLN
Serine/threonine-protein kinase 3 (Homo sapiens), sequence (Q13188 whole entry): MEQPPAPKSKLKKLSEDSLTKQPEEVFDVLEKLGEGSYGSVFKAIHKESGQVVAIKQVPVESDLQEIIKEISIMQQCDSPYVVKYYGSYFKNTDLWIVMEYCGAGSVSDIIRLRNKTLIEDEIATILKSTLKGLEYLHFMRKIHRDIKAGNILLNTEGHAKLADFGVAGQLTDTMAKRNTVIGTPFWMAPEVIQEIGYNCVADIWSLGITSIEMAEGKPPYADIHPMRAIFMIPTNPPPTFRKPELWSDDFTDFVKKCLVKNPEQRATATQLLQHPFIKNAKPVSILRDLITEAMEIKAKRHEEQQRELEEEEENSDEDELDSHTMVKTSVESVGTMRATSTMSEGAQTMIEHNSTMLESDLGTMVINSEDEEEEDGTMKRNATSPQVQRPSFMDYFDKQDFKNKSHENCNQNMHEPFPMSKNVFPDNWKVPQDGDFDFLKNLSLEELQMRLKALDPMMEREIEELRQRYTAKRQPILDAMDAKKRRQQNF
Peripheral plasma membrane protein CASK (Homo sapiens), sequence (O14936 whole entry): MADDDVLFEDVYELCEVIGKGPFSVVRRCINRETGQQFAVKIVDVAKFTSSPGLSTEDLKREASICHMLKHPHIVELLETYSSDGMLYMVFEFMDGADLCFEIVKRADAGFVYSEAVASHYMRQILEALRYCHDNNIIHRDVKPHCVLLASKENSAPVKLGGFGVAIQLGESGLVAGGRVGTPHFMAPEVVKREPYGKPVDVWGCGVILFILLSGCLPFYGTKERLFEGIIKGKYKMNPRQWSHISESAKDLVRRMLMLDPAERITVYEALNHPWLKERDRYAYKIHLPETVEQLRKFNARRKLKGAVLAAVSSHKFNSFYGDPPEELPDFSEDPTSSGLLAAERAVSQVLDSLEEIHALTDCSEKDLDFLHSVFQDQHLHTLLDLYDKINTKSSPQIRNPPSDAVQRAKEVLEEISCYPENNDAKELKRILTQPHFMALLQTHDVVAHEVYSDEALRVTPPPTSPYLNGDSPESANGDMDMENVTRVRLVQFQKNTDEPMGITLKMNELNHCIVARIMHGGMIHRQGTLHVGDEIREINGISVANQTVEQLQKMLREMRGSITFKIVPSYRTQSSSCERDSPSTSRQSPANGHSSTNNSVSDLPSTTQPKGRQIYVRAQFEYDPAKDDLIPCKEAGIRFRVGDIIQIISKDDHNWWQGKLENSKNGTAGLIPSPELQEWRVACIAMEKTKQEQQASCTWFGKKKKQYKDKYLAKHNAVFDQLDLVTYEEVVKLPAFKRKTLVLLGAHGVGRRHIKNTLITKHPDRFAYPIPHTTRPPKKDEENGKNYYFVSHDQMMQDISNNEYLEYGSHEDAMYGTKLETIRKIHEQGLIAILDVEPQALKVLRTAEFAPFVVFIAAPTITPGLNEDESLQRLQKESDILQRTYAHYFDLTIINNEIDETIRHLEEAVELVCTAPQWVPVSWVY

O=C(NS(=O)(=O)c1ccc(NCC2CCOCC2)c([N+](=O)[O-])c1)c1ccc(N2CCN(Cc3ccc(C(F)(F)F)cc3-c3ccc(Cl)cc3)CC2)cc1Oc1cnc2[nH]ccc2c1 [A-1210227]
% Inhibition of Control Specific Binding (Mean n=2) [1]: 10.5%
% Inhibition of Control Specific Binding (Mean n=2) [2]: 11.2%
% Inhibition of Control Specific Binding (Mean n=2) [3]: -2%
residual activity [4]: 98%
residual activity [5]: 96%
residual activity [6]: 100%
residual activity [7]: 80%
residual activity [8]: 97%
residual activity [9]: 100%
residual activity [10]: 96%
residual activity [11]: 96%
residual activity [12]: 75%
residual activity [13]: 84%
residual activity [14]: 100%
residual activity [15]: 100%
residual activity [16]: 90%
residual activity [17]: 100%
residual activity [18]: 78%
residual activity [19]: 85%
residual activity [20]: 100%
residual activity [21]: 76%
residual activity [22]: 98%
residual activity [23]: 73%
residual activity [24]: 86%
residual activity [25]: 84%
residual activity [26]: 94%
residual activity [27]: 100%
residual activity [28]: 77%
residual activity [29]: 100%
residual activity [30]: 93%
residual activity [31]: 100%
residual activity [32]: 100%
residual activity [33]: 50%
residual activity [34]: 81%
residual activity [35]: 100%
residual activity [36]: 100%
residual activity [37]: 98%
residual activity [38]: 94%
residual activity [39]: 100%
residual activity [40]: 100%
residual activity [41]: 100%
residual activity [42]: 79%
residual activity [43]: 100%
inhibition [44]: 12.5%

CO[C@H]1CC[C@H](CNc2ccc(S(=O)(=O)NC(=O)c3ccc(N4CCN(CC5=C(c6ccc(Cl)cc6)CC(C)(C)CC5)CC4)cc3Oc3cnc4[nH]ccc4c3)cc2[N+](=O)[O-])CC1 [A-1211212]
% Inhibition of Control Specific Binding (Mean n=2) [1]: -1%
% Inhibition of Control Specific Binding (Mean n=2) [2]: -2.2%
% Inhibition of Control Specific Binding (Mean n=2) [3]: -1%
residual activity [4]: 100%
residual activity [5]: 100%
residual activity [6]: 100%
residual activity [7]: 100%
residual activity [8]: 98%
residual activity [9]: 100%
residual activity [10]: 100%
residual activity [11]: 85%
residual activity [12]: 91%
residual activity [13]: 100%
residual activity [14]: 90%
residual activity [15]: 75%
residual activity [16]: 89%
residual activity [17]: 100%
residual activity [18]: 79%
residual activity [19]: 88%
residual activity [20]: 100%
residual activity [21]: 83%
residual activity [22]: 93%
residual activity [23]: 67%
residual activity [24]: 96%
residual activity [25]: 88%
residual activity [26]: 100%
residual activity [27]: 85%
residual activity [28]: 66%
residual activity [29]: 69%
residual activity [30]: 94%
residual activity [31]: 100%
residual activity [32]: 100%
residual activity [33]: 47%
residual activity [34]: 75%
residual activity [35]: 74%
residual activity [36]: 90%
residual activity [37]: 100%
residual activity [38]: 100%
residual activity [39]: 73%
residual activity [40]: 67%
residual activity [41]: 82%
residual activity [42]: 70%
residual activity [43]: 100%
inhibition [44]: 12.7%
